For one experiment, the system named is ERAAP. Nature of the experiment: ERAAP expression in cultured fibroblasts treated with interferon gamma. The format is cell-based. How it is done: MHC I molecules are expressed by virtually all tissues. To determine whether ERAAP expression correlated with that of MHC I, seven different mouse tissues were analyzed by western blot for expression of ERAAP, MHC I and the housekeeping proteins actin and gp96 as controls. ERAAP was detected in all tissues analyzed but its expression was highest in the liver, lung, spleen and thymus, the same tissues which also expressed the highest levels of MHC I molecules. Furthermore, the expression of ERAAP was increased approximately 10-fold by treatment of cultured fibroblasts with the inflammatory cytokine interferon gamma, which also upregulates many other key components in the antigen processing pathway (17).

For a further experiment, the target named is human source ERAAP (Homo sapiens, UniProt Q9NZ08). Description: ERAAP modulation/selectivity screen against a panel of other aminopeptidases. Format: biochemical. Particulars: preferential inhibition of ERAAP compared with a panel of other aminopeptidases. An excerpt:
The targeted ERAAP is a well-known, naturally-occurring aminopeptidase, which has been biochemically characterized and cloned in a wide variety of animal species, including mice, rats and humans. […] Note that the same enzyme has been called “A-LAP” (adipocyte-derived leucine aminopeptidase) by others (e.g. Hattori et al., supra).
Protocols for delivering the inhibitor and effective dosages are known in the art and/or readily determined empirically by those skilled in the art guided by the selected inhibitor and the present disclosure. […] For example, the well-characterized structural interaction between aminothiol inhibitors of aminopeptidases (e.g. Bienvenue et al., J Inorgan Biochem 2000, 78, 43-54) were exploited to select ERAAP selective aminothiol-type inhibitors. In this manner, we screened panels of compounds and identified a number of ERAAP-selective aminothiol inhibitors, including leucine thiol and lysinethiol. ERAAP modulation assays may be performed by any convenient protocol, including those described by us in Serwold et al. (2001, supra), those of Hattori et al. (2000, supra), etc. […] Alternative aminopeptidase inhibitor pharmacophores for ERAAP selectivity and method compatibility screens include L-bis (1-thio-2-amino-4-methylpentane) dihydrochloride (TAMP) and L-bis (1-thio-2-amino-3-phenylpropane) dihydrochloride (TAPP) (see, e.g. Weiss et al., Res Comm Chem Path Pharmacol 1988, 62, 113-2) and alpha-thiolbestatins (e.g. Ocain et al., J Med Chem 1988 November;31(11):2193-9).

The subject of experiment [1] is antigen presenting cells (APC). Description: APC assays with peripheral blood leukocytes from aminothiol-treated rats. Format: in vivo, Sprague-Dawley rats. Particulars: peripheral blood leukocytes of treated rats as APC for T cells specific for K^b or D^b presented peptides.
Experiment [2] addresses T1, predominant aminopeptidase activity present in the ER (ERAAP) (Mus musculus, UniProt Q9EQH2).
T1 construct: Microsomes from liver and spleens of mice were solubilized in detergent; from tissue; host or cells: mouse liver and spleen microsomes
T1 sequence (Q9EQH2 1-930): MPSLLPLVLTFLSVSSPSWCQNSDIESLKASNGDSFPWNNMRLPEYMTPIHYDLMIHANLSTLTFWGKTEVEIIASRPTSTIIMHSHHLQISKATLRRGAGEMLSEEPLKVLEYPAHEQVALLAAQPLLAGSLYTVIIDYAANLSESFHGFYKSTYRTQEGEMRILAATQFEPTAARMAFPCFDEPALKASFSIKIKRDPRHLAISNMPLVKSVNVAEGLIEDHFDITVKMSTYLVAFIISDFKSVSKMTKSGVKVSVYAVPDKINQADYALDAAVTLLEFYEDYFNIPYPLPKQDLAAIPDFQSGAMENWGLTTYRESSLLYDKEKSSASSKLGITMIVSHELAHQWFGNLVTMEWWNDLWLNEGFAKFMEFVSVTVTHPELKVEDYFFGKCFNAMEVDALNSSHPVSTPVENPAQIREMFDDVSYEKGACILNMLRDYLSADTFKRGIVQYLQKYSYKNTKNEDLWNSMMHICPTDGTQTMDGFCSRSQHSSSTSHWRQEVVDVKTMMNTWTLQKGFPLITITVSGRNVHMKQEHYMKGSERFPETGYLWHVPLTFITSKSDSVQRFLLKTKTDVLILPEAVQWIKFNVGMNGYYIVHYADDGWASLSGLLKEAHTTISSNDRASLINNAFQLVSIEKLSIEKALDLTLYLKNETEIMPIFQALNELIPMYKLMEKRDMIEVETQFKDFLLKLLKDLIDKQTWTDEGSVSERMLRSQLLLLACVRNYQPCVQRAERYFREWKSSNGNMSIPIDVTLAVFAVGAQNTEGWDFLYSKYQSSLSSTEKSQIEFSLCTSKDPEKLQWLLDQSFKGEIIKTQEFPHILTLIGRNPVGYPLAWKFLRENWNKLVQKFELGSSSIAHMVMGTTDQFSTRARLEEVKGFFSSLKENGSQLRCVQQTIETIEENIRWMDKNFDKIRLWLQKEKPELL
Description: Aminopeptidase activity of solubilized microsomes, colorimetric substrate leucine-p-nitroanilide. The format is biochemical, mice. Particulars: ion exchange chromatography of solubilized microsomes from mouse liver and spleen. An excerpt:
To identify this protease, we biochemically purified the predominant aminopeptidase activity present in the ER. Microsomes from liver and spleens of mice were solubilized in detergent and the aminopeptidase activity was monitored by the colorimetric substrate leucine-p-nitroanilide (9). […] This activity was precipitated from solubilized microsomes by ammonium sulfate, resolublized and fractionated by size exclusion, ion exchange and hydrophobic interaction chromatographies. The highly enriched fractions from the final purification step contained a major band of approximately 100 kD on a coommassie blue stained SDS-PAGE gel. This band was subjected to in-gel trypsin digestion and the peptides were analyzed by MALDI-TOF mass spectrometry; the resulting tryptic peptide fingerprint was used to search the NCBI database (10). In two independent experiments 25 masses matched the predicted output of trypsin digested murine adipocyte-derived leucine aminopeptidase (Genbank Accession # AF227511). This assignment was further confirmed with the amino acid sequences of four peptides determined by high energy CID MS-MS analysis (11). This 930 amino acid murine aminopeptidase and its human and rat homologues are known by a variety of different names (12). […]

The test system of a further experiment is Sprague-Dawley rats. Description: Phenotypic and functional indicia of immunosuppression in treated rats. The format is in vivo.

Chain of human source ERAAP (Q9NZ08 whole entry): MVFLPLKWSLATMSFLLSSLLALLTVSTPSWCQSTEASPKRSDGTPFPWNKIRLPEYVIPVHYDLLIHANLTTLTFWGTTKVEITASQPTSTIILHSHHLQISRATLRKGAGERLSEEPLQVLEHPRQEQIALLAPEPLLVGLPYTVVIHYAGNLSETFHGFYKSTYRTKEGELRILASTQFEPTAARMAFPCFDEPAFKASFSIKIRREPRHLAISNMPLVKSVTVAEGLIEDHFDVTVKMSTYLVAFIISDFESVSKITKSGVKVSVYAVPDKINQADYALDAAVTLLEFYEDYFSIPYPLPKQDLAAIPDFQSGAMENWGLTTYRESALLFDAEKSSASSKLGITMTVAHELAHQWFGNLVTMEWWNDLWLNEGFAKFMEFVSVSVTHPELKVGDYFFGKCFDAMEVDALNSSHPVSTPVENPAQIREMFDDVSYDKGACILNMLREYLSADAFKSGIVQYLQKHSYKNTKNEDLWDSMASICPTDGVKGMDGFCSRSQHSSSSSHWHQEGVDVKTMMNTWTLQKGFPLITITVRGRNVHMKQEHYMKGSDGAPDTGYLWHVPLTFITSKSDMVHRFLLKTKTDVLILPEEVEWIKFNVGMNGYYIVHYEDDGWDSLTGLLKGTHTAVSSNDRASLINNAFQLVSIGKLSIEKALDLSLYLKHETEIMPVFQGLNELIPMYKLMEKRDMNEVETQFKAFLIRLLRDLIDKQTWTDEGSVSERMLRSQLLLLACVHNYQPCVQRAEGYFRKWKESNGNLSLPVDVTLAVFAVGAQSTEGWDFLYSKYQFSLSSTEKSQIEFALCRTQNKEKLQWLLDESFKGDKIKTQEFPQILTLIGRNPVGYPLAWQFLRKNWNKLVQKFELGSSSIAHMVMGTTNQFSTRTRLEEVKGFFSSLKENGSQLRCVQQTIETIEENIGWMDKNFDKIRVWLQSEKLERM

For interferon gamma: inflammatory cytokine, the “increase of ERAAP expression” value in the experiment with ERAAP is given as “approximately 10 fold”.

As to `CC[C@H](C)[C@H](N)CS` [isoleucinethiol], at human source ERAAP, the ERAAP selectivity result was “ERAAP-selective”.

On to `CC(C)C[C@H](N)CS` [leucinethiol], for which the APC function result in experiment [1] was “pronounced inhibition”. Besides, the “predominant aminopeptidase activity peak” value in experiment [2] is listed as “blocked”. In the experiment with Sprague-Dawley rats, the “spleen and thymus volume” value is recorded as “reduced”. In addition, in the experiment on Sprague-Dawley rats (e.g. skin graft assays), the graft-host response result is reported as “reduced”. Also, the ERAAP selectivity result at human source ERAAP is recorded as “ERAAP-selective”.

`NCCCC[C@H](N)CS` [lysinethiol]: on human source ERAAP, the ERAAP selectivity entry is recorded as “ERAAP-selective”.

(Values after US7232570B2, “ERAAP modulators regulate immune responses” (Regents of the University of California, priority 2002, dated 2007).)
